Experimental data taken from paper PMC11538690, “Lysosome‐Targeted Bifunctional Therapeutics Induce Autodynamic Cancer Therapy” (Advanced Science, 2024).

How the values were obtained:
HT29 cells [1] = assay: WST-8 cytotoxicity assay; type: cell-based, human; settings: 5, 10 and 20 µM, 24 h (Figure S4); n = 5
Protocol: (§1) Figure 2 In vitro cellular evaluations of ZWPro in cancer cells. a) Cytotoxicity assay showing HT29, MCF7, L929, and NIH3T3 cells treated with 20 µM of ZW and ZWPro for 2 and 24 h, respectively, followed by an assessment of cell viability using the water‐soluble tetrazolium assay (n = 5, mean ± s.e.m.). b) Cellular uptake and intracellular endosomal localization of ZW and ZWPro were observed by treating HT29 and L929 cells with 20 µM of ZW and ZWPro. […] The internalization index was determined in 2–9 photographic areas (ns, not significant, *p < 0.05 based on two‐way analysis of variance followed by Bonferroni's multiple comparison test). c) Inhibition assay of cellular uptake of ZWPro to determine the entry mechanisms in HT29 cells. […] The co‐localizing pixels (%) were calculated by dividing the area of overlap between ZWPro and LysoTracker by the total area of the LysoTracker, respectively. […]
(§2) To evaluate the cytotoxicity of ZW and ZWPro in cancer and normal cells, HT29, MCF7, L929, and NIH 3T3 cells were collected by trypsinization and resuspended in 96‐well plates at a concentration of 10 000 cells/well in fresh growth media and incubated for 1 d at 37 °C under 5% CO2 conditions. […] Absorption was subsequently measured at 450 nm on a microplate reader (Thermo Scientific, Varioskan LUX multimode). […]

L929 cells [2] = assay: WST-8 cytotoxicity assay; type: cell-based, mouse; settings: 5, 10 and 20 µM, 24 h (Figure S4); n = 5
Protocol: (§3) Figure 2 In vitro cellular evaluations of ZWPro in cancer cells. a) Cytotoxicity assay showing HT29, MCF7, L929, and NIH3T3 cells treated with 20 µM of ZW and ZWPro for 2 and 24 h, respectively, followed by an assessment of cell viability using the water‐soluble tetrazolium assay (n = 5, mean ± s.e.m.). b) Cellular uptake and intracellular endosomal localization of ZW and ZWPro were observed by treating HT29 and L929 cells with 20 µM of ZW and ZWPro. […] The internalization index was determined in 2–9 photographic areas (ns, not significant, *p < 0.05 based on two‐way analysis of variance followed by Bonferroni's multiple comparison test). c) Inhibition assay of cellular uptake of ZWPro to determine the entry mechanisms in HT29 cells. Cultured cells were incubated with bromsulphthalein for 20 min and then incubated with ZWPro (20 µM) in media for 15 min. Data are presented as means ± standard deviations (n = 7–8) **p < 0.01 based on Welch's t‐test. d) Findings from HT29 human colorectal adenocarcinoma cells and L929 fibroblast cell lines co‐stained with the lysosome marker LysoTracker Green. Co‐localization occurs at specific time intervals during imaging. The co‐localizing pixels (%) were calculated by dividing the area of overlap between ZWPro and LysoTracker by the total area of the LysoTracker, respectively. Scale bars: 10 µm.
(§4) To evaluate the cytotoxicity of ZW and ZWPro in cancer and normal cells, HT29, MCF7, L929, and NIH 3T3 cells were collected by trypsinization and resuspended in 96‐well plates at a concentration of 10 000 cells/well in fresh growth media and incubated for 1 d at 37 °C under 5% CO2 conditions. After the cells were completely attached to the walls, the original medium was discarded and replaced with a 200 µL fresh culture medium which contained different concentrations of ZW and ZWPro. Cells were then cultured in a constant temperature incubator for 2 and 24 h. EZ‐Cytox solution (10%) was then added to each well, and the plates were incubated at 37 °C in a 5% CO2 incubator for 2 h in the dark. Cells were then exposed to a digital orbital shaker (Scilab Instruments Co, No. SSO‐2D) at 200 rpm. Absorption was subsequently measured at 450 nm on a microplate reader (Thermo Scientific, Varioskan LUX multimode). […] Statistical analysis was conducted using the software GraphPad Prism 8.

NIH 3T3 cells = assay: WST-8 cytotoxicity assay; type: cell-based, mouse; settings: 5, 10 and 20 µM, 24 h (Figure S4); n = 5
Protocol: as §3, §4

MCF7 cells [3] = assay: WST-8 cytotoxicity assay; type: cell-based; settings: 5, 10 and 20 µM, 24 h (Figure S4); n = 5
Protocol: as §1, §2

HT29 tumor-bearing mice [4] = assay: Time-dependent in vivo NIR tumor imaging and biodistribution; settings: 20 nmol i.v., real-time NIR fluorescence imaging
Description: Figure 4 In vivo, tumor growth inhibition and studies in tumor‐induced mice subcutaneously injected with HT29 cells and treated with ZWPro. a) Schematic of the treatment schedule and experimental design of PBS, ZW, and ZWPro. Biodistribution and pharmacokinetic (PK) parameters of targeted ZW and ZWPro in normal mice. PK parameters of ZW and ZWPro (0.3 µmol kg^−1) (t1/2α; distribution half‐life, t1/2β; elimination half‐life, AUC; area under the curve, Vd volume of distribution, and urinary excretion (% injected dose, %ID)) were calculated using the software Prism 9. Urinary excretion occurred at 48 h post‐injection (n = 2–3 per group, mean ± s.e.m.). (b) In total, 20 nmol of each compound was injected into BLAB/C nude mice (weights = 20–25 g) and time‐dependent imaging was performed post‐injection. c) Color and NIR fluorescence in vivo images of ZW and ZWPro (0.3 µmol kg^−1) were taken at different time intervals. d) Tumor‐to‐background (TBR) ratios of tumors (white dotted circles in (c)) compared with muscles obtained from at each time point; and e) signal‐to‐background (SBR) outcomes were calculated using NIR images of resected organs at 48 h post‐injection. (Exposure time = 100 ms, n = 3, mean ± s.e.m.) The SBR was calculated by the fluorescence intensity of each organ (Or) against the system background (Exposure time = 1000 ms, n = 3, mean ± s.e.m.). […]

HT29 cells [5] = assay: Cellular uptake by fluorescence microscopy; type: cell-based, human; settings: 20 µM, 2 h, 37 °C; NIR fluorescence microscopy
Protocol: (§5) Figure 2 In vitro cellular evaluations of ZWPro in cancer cells. a) Cytotoxicity assay showing HT29, MCF7, L929, and NIH3T3 cells treated with 20 µM of ZW and ZWPro for 2 and 24 h, respectively, followed by an assessment of cell viability using the water‐soluble tetrazolium assay (n = 5, mean ± s.e.m.). b) Cellular uptake and intracellular endosomal localization of ZW and ZWPro were observed by treating HT29 and L929 cells with 20 µM of ZW and ZWPro. […] The internalization index was determined in 2–9 photographic areas (ns, not significant, *p < 0.05 based on two‐way analysis of variance followed by Bonferroni's multiple comparison test). c) Inhibition assay of cellular uptake of ZWPro to determine the entry mechanisms in HT29 cells. Cultured cells were incubated with bromsulphthalein for 20 min and then incubated with ZWPro (20 µM) in media for 15 min. […] The co‐localizing pixels (%) were calculated by dividing the area of overlap between ZWPro and LysoTracker by the total area of the LysoTracker, respectively. […]
(§6) Fluorescence microscopic assessments were performed to compare the intracellular uptake of ZW and ZWPro in cancerous and normal cells. […] The fluorescent intensity of each cell was measured using ImageJ (version 1.51j8, National Institutes of Health, Bethesda, MD, USA). The outline of each cell was determined on a phase‐contrast image.

NIH3T3 cells = assay: Cellular uptake by fluorescence microscopy; type: cell-based, mouse; settings: 20 µM, 2 h, 37 °C; fluorescent microscopy
Protocol: (§7) Fluorescence microscopic assessments were performed to compare the intracellular uptake of ZW and ZWPro in cancerous and normal cells. Two sets of cathepsin B‐expressing cancer cells (HT29 and MCF7) and 2 sets of normal cells (L929 and NIH3T3) were seeded in a confocal dish and incubated at 37 °C for 1 d before treatment. Subsequently, 20 µM ZWPro and ZW were added to the cells for 2 h. Subsequently, 50 nM of LysoTracker Green (a fluorescent dye that selectively labels lysosomes) was added for 30 min. Following incubation with the dye, the cells were resuspended with fresh media after they were rinsed 3 times with 1X PBS to remove any remaining dye, and imaging was performed. To determine the role of organic anion transporter peptides (OATPs) in the ZWPro uptake process, HT29 cells were pretreated with BSP (250 µM, Sigma–Aldrich, 167 207) for 20 min in the inhibition assay. Cells were then incubated with 20 µM of ZWPro at 37 °C for 15 min. After washing, cell images were obtained. Images were obtained using a Nikon Eclipse inverted microscope, DS‐Ri2, or DS‐Qi2 (Ex/Em, 754/774 nm; exposure time, 2 s). The fluorescent intensity of each cell was measured using ImageJ (version 1.51j8, National Institutes of Health, Bethesda, MD, USA). The outline of each cell was determined on a phase‐contrast image.
(§8) Figure S5. Cellular uptake and intracellular localization of ZW and ZWPro. […]

[6] = cited from earlier work
Description: The zwitterionic fluorophore ZW (emitting NIR fluorescence at 800 nm) was synthesized as reported previously.^[ [6] ^] […] To create the ZWPro conjugate, ZW (1.2 equiv.) was covalently attached to Pro using N‐Hydroxysuccinimide (NHS) ester and led to a stable amide bond formation (Figure 1b). Pro peptides were en ...

[7] = Photostability test under 760 nm laser; type: physicochemical; settings: all tested solvents, up to 4 h
Protocol: Photostability assay was conducted to compare ZW800‐1C with ZWPro in PBS and also evaluated ZWPro in distilled water and 10% FBS in PBS exposed to continuous irradiation using a 760 nm laser diode at 4 mW cm^−2, with white light (400–650 nm) at 40 000 lux and imaged up to 4 h. The fluorescence intensity (FI) signal (%) was calculated by measured values with ImageJ version 1.53t using images captured at each time point. Fluorescence values of the quenching assay were conducted at different concentration points at 0 and 4 h to determine the quenching concentration and to assess any significant photodegradation or photobleaching effects.
The data, presented as mean ± SD, assessed the fluorescence image by measuring regions of interest (ROI) and comparing fluorescence intensity against the initial fluorescence signal.
Figure S3. Optical property characterization of the ZWPro (a) Absorbance and Fluorescence spectra of ZWPro and optical properties of Pro, ZW800-1C, and ZWPro. (b) Stability test of ZWPro with PBS and 10% FBS in PBS until 24 h at 37 °C incubator. (c) Fluorescence image and value are used to determine quenching concentration under a 760nm channel of different concentrations of ZWPro depending on time. Photostability test of (d) ZW800-1C and ZWPro in PBS. (e) Photostability test of ZWPro in different solvents. DW: Distilled water, 10% FBS: Fetal bovine serum in PBS. […]

HT29 tumor-bearing mice [8] = assay: In vivo tumor reduction test; settings: i.v. 50 nmol (9.5 mg kg−1) twice; weighed every other day for 30 days; versus control group
Protocol: Owing to the cancer‐specific cytotoxicity of ZWPro, the in vivo tumor targetability and theranostic capacity of ZWPro were evaluated in HT29 tumor‐bearing mice. Preliminary studies were conducted to determine the optimal dosage of ZWPro to achieve effective anticancer activity. […] To investigate the antitumor impact, mice were intravenously injected with PBS (150 µL) (control group), and with ZWPro (150 µL) or ZW (150 µL, 50 nmol at 9.5 mg k^−1g). […] The tumor size increased slightly after the treatment on d 0. […] Stable mouse body weights were observed across all experimental groups. After 30 d of treatment with ZWPro, tumors were smaller than those in the ZW and PBS groups (Figure 4g).
Figure 4 In vivo, tumor growth inhibition and studies in tumor‐induced mice subcutaneously injected with HT29 cells and treated with ZWPro. a) Schematic of the treatment schedule and experimental design of PBS, ZW, and ZWPro. […] PK parameters of ZW and ZWPro (0.3 µmol kg^−1) (t1/2α; distribution half‐life, t1/2β; elimination half‐life, AUC; area under the curve, Vd volume of distribution, and urinary excretion (% injected dose, %ID)) were calculated using the software Prism 9. […] (Exposure time = 100 ms, n = 3, mean ± s.e.m.) The SBR was calculated by the fluorescence intensity of each organ (Or) against the system background (Exposure time = 1000 ms, n = 3, mean ± s.e.m.). […]

L929 cells [9] = assay: Cellular uptake by fluorescence microscopy; type: cell-based, mouse; settings: 20 µM, 2 h, 37 °C; NIR fluorescence microscopy
Protocol: as §5, §6

MCF7 cells [10] = assay: Cellular uptake by fluorescence microscopy; type: cell-based; settings: 20 µM, 2 h, 37 °C; fluorescent microscopy
Protocol: as §7, §8

Protamine
toxicity (in words) (HT29 cells [1]): negligible toxicity
toxicity (in words) (L929 cells [2]): negligible toxicity
toxicity (in words) (NIH 3T3 cells): negligible toxicity
toxicity (in words) (MCF7 cells [3]): negligible toxicity

CC1(C)C(/C=C/C2=C(c3ccc(CCC(=O)O)cc3)C(=C/C=C3/N(CCC[N+](C)(C)C)c4ccc(S(=O)(=O)O)cc4C3(C)C)/CCC2)=[N+](CCC[N+](C)(C)C)c2ccc(S(=O)(=O)O)cc21 [ZW, ZW800‐1C]
tumor targeting / accumulation (in words) (HT29 tumor-bearing mice [4]): no tumor specificity or cell penetration ability
toxicity (in words) (HT29 cells [1]): negligible toxicity
cellular uptake / internalization (in words) (HT29 cells [5]): not internalized
toxicity (in words) (L929 cells [2]): negligible toxicity
toxicity (in words) (NIH 3T3 cells): negligible toxicity
cellular uptake / internalization (in words) (NIH3T3 cells): does not show internalization
plasma protein binding (in words) [6]: low‐plasma protein binding
photostability (in words) [7]: strong photostability
body weight change (in words) (HT29 tumor-bearing mice [8]): neither ZWPro nor ZW resulted in weight loss
cellular uptake / internalization (in words) (L929 cells [9]): not internalized
cellular uptake / internalization (in words) (MCF7 cells [10]): does not show internalization
toxicity (in words) (MCF7 cells [3]): negligible toxicity
